Like-named read-outs stand apart in the source and are kept apart here. Bridge positions count the residues as written; N and C are the ends. Ends that are not written are not given here.
Experiments:
[1] = target: human pancreatic α-amylase (HPA); settings: Table 5, ref [11]; cited from earlier work
Text: Recently, as a result of the proteomic analysis of the sea anemone H. magni ...

[2] = target: T1, porcine pancreatic α-amylase (PPA) (Sus scrofa, UniProt P00690); settings: cited from earlier work
T1 construct: purchased Sigma Aldrich A4268
T1 sequence (P00690 16-511): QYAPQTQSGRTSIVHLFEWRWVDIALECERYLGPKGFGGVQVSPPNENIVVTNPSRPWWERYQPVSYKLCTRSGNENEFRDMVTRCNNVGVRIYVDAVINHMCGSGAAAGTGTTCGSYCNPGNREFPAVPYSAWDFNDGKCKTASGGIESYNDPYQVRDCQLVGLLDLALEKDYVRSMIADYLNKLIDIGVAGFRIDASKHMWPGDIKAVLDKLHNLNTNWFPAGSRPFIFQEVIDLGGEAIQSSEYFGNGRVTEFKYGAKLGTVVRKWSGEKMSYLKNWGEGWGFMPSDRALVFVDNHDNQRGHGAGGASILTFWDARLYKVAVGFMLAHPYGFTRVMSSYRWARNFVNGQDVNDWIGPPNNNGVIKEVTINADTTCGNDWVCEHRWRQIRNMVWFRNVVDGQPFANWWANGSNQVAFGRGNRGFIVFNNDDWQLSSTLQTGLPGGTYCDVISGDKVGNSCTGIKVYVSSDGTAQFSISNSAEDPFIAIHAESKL
Text: It covers all age groups of the population, and recently it has spread epidemiologically among children and adolescents. The blood glucose levels of diabetic patients reaches abnormally high values, which leads to serious damage to many body systems, especially nerves and blood vessels, causing heart and kidney diseases, blindness, and even the amputation of limbs. […] Recently, as a result of the proteomic analysis of the sea anemone H. magni ...

[3] = system: human saliva α-amylases (HSA); settings: cited from earlier work
Text: It covers all age groups of the population, and recently it has spread epidemiologically among children and adolescents. The blood glucose levels of diabetic patients reaches abnormally high values, which leads to serious damage to many body systems, especially nerves and blood vessels, causing heart and kidney diseases, blindness, and even the amputation of limbs. The preferred way to maintain ...

[4] = target: porcine pancreatic α-amylase (porcine) (UniProt P00690); assay: enzyme inhibition kinetics (Morrison tight-binding fit); 37 °C, 50 mM sodium phosphate, 100 mM sodium chloride, pH 7.0; substrate CNPG3 (1 mM with nominal 20 nM PPA; 3.3 mM with nominal 100 nM HSA); enzyme pre-incubated with inhibitor 10 min; Ki from Ki app assuming a competitive mode of inhibition; triplicate
[5] = system: fungi, Gram-positive or Gram-negative bacteria; assay: Antimicrobial screening, overall; format: cell-based; settings: 1, 5, 10, 20 µM; listed as magnificamide
Procedure: The antimicrobial activity of r-magnificamide was tested against Gram-positive (Staphylococcus aureus ATCC 21027 and Bacillus subtilis ATCC6633), Gram-negative bacteria (Escherichia coli VKPM B-7935 and Pseudomonas aeruginosa ATCC 27853), and the fungus Candida albicans KMM 455 by the agar dilution method. Microbial strains were taken from the American Type Culture Collection (ATCC), Russian National Collection of Industrial Microorganisms (VKPM), and Collection of Marine Microorganisms (KMM) (Pacific Institute of Bioorganic Chemistry FEB RAS). To obtain a microbial lawn, 0.1 mL of a cell suspension (0.5 × 10^8 cells/mL) was uniformly distributed on agar surface in Petri dishes (15 g/L tryptic soy broth, 2 g/L bacto yeast extract, 1 g/L glucose, and 20 g/L agar for bacteria; for fungi 10 g/L of glucose was added). Wells with a diameter of 6 mm were punched into the agar and filled with 100 µL of the peptide solution at concentrations 1, 5, 10, and 20 µM. The plates were then incubated for 18 h at 37 °C for bacteria, and at 30 °C for the fungus. Minimum inhibitory concentration was determined by measuring the clear zone of inhibition around each well. All assays were performed independently three times.

[6] = system: 18 subtypes of voltage-gated potassium and voltage-gated sodium channels; assay: Electrophysiological screening, overall; format: cell-based; settings: 10 µM; Xenopus laevis oocytes; listed as magnificamide
Text: For the expression of Nav channels (mammalian rNav1.2, rNav1.4, hNav1.5, mNav1.6 and hNav1.8 channels; the insect channel BgNav1 from Blattella germanica; and the auxiliary subunits rβ1, hβ1, and TipE) and Kv channels (mammalian rKv1.1, rKv1.2, hKv1.3, rKv1.4, rKv1.5, rKv1.6, rKv2.1, hKv3.1, rKv4.2, hKv10.1, and hERG; and Drosophila Shaker’s IR) in Xenopus laevis oocytes; the linearized plasmids were transcribed using the T7 or SP6 mMESSAGE-mMACHINE transcription kit (Ambion, Carlsbad, CA, USA). The harvesting of stage V–VI oocytes from anesthetized female Xenopus laevis frog was previously described. Oocytes were injected with 50 nL of cRNA at a concentration of 1 ng/nL using a microinjector (Drummond Scientific, Broomall, PA, USA). The oocytes were incubated in a solution containing 96-mM NaCl, 2-mM KCl, 1.8-mM CaCl2, 2-mM MgCl2, and 5-mM HEPES (pH 7.4), supplemented with 50 mg/L gentamycin sulfate.
Two-electrode voltage-clamp recordings were performed at room temperature (18–22 °C) using a Geneclamp 500 amplifier (Molecular Devices, Downingtown, PA, USA) controlled by a pClamp data acquisition system (Axon Instruments, Union City, CA, USA). Whole cell currents from oocytes were recorded 1–4 days after injection. The bath solution’s composition was 96-mM NaCl, 2-mM KCl, 1.8-mM CaCl2, 2-mM MgCl2, and 5-mM HEPES (pH 7.4). Toxins were applied directly to the bath. Resistances of both electrodes were kept between 0.8 and 1.5 MΩ. The elicited currents were sampled at 20 kHz (Nav) or 2 kHz (Kv), filtered at 2 kHz (Nav) or 0.5 kHz (Kv) using a four-pole low-pass Bessel filter. Leak subtraction was performed using a -P/4 protocol. […] For the electrophysiological analysis, a number of protocols were applied from a holding potential of −90 mV with a start-to-start interval of 0.2 Hz. Kv1.1–Kv1.6 and Shaker currents were evoked by 250-ms depolarizations to 0 mV followed by a 250 ms pulse to −50 mV from a holding potential of −90 mV. […] All data were analyzed using pClamp Clampfit 10.0 (Molecular Devices, Downingtown, PA, USA) and Origin 7.5 software (Originlab, Northampton, MA, USA).

[7] = target: human salivary α-amylase (HSA) (Homo sapiens, UniProt P0DUB6); assay: Determination of Ki against human saliva α-amylase (Morrison); format: biochemical; settings: pH 7, Table 5 summary, own value; 37 °C, pH 7.0, CNPG3, Morrison fit; read-out: Ki, M (HSA) (converted)
human salivary α-amylase (HSA), sequence (P0DUB6 16-511): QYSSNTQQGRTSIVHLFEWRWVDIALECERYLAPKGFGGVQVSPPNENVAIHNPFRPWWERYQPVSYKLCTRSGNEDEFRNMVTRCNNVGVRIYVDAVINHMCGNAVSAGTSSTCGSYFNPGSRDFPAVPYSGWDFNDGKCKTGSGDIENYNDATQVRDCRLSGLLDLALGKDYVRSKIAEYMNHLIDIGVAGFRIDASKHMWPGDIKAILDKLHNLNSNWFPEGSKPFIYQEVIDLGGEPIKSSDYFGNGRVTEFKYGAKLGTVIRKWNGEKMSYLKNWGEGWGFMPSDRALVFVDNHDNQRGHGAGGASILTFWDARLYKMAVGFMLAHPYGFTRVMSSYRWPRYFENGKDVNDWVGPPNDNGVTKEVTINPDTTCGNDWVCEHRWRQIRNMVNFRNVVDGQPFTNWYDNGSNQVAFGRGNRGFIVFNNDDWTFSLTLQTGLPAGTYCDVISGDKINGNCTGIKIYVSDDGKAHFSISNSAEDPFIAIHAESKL
Procedure: For a quantitative assessment of tight-binding inhibitor potency, Morrison’s method was applied. This method uses the Morrison quadratic equation (Equation (1)) for fitting inhibitor-response data and determining Ki app as a nonlinear regression parameter. (1) υ/υo=1−([E]+[I]+Kiapp)−([E]+[I]+Kiapp)^2−4[E][I]/2[E]o
Kinetic assays were carried out at 37 °C in 50 mM sodium phosphate and 100 mM sodium chloride (pH 7.0). 2-Chloro-4-nitrophenyl-α-maltotrioside (CNPG3) (Sigma Aldrich, St. Louis, MO, USA) was used as the substrate and the optical absorption of the 2-chloro-4-nitrophenol was measured at 405 nm. Reactions were run with final [CNPG3] = 1 mM ([S]/KM = 1.41, KM = 0.71 mM), nominal [E] = 20 nM for PPA, [CNPG3] = 3.3 mM ([S]/KM = 0.97, KM = 3.4 mM), and nominal [E] = 100 nM for HSA to provide sufficient analytical signal. Inhibitor dilution schemes were optimized considering recommendations in [34].
The enzyme was pre-incubated with the inhibitor for 10 minutes before the addition of substrate which launched the reaction. Reactions were monitored on an xMark microplate spectrophotometer (BioRad, USA) in the kinetic mode for 30 min. The initial linear steady state region provided initial rate values for each inhibitor concentration (υ), along with uninhibited rate values (υo). Measurements were run in triplicate. […]

[8] = due to β-sandwich fold; ref [17]; cited from earlier work
Text: The medicines based on proteins and peptides are poorly represented in the pharmacological market, but attract the interest of specialists due to their high selectivity and effectiveness, combined with relative safety and good tolerability. A large number of proteinaceous α-amylase inhibitors have been isolated from plants, but they are highly specific and interacted with plant α-amylases to control the breakdown of stored starch or with insect α-amylases for defense. Several very effective proteinaceous inhibitors of mammalian, but not plant or microbial α-amylases were found in bacter ...

Montbretin A
Ki [1]: 8.1 nM

Helianthamide: α-amylase inhibitor of the β-defensins family from Stichodactyla helianthus (44 aa, 4716 Da); PDB ID 4XON (ESGNSCYIYHGVSGICKASCAEDEKAMAGMGVCEGHLCCYKTPW; three disulfide bridges; the text prints the PDB ID as 4XON, read as 4X0N (complex with porcine pancreatic alpha-amylase)) [reference compound]
Ki ([2]; Table 5, ref [18]): 0.1 nM

C[C@H]1O[C@H](O[C@H]2[C@H](O)[C@@H](O)[C@@H](O[C@H]3[C@H](O)[C@@H](O)C(O)O[C@@H]3CO)O[C@@H]2CO)[C@H](O)[C@@H](O)[C@@H]1N[C@H]1C=C(CO)[C@@H](O)[C@H](O)[C@H]1O (some centres unmarked) [Acarbose]
Ki ([3]; Table 5, ref [9], read-out: Ki, M (HSA) (converted)): 1300 nM | Ki ([3]; ref [9], read-out: Ki against HSA): 1260 nM

recombinant magnificamide (peptide)
Ki [4]: 0.17 nM

SEGTSCYIYHGVYGICKAKCAEDMKAMAGMGVCEGDLCCYKTPW (disulfide 6-38, 16-33, 20-39) [Magnificamide]
Antimicrobial activity, overall [5]: No antimicrobial activity against Gram-positive, Gram-negative bacteria, or fungi was observed | Ion channel modulating activity, overall [6]: found no activity | Ki [7]: 7.7 nM

B1: Parvulustat (Z-2685): α-amylase inhibitor from Streptomyces parvullus FH-1641, Mr 8129 Da (protein)
chain: ATGSPVAECVEYFQSWRYTDVHNGCADAVSVTVEYTHGQWAPCRVIEPGGWATFAGYGTDGNYVTGLHTCDPATPSGV
modifications: two disulfide bridges; expected 78 aa, 8129 Da
Ki ([2]; Table 5, ref [16]): 0.028 nM

B2: Tendamistat (HOE-467A): α-amylase inhibitor from Streptomyces tendae 4158, Mr 7958 Da (protein, UniProt P01092 31-104, looked up)
Alpha-amylase inhibitor …: DTTVSEPAPSCVTLYQSWRYSQADNGCAQTVTVKVVYEDDTEGLCYAVAPGQITTVGDGYIGSHGHARYLARCL
immunogenicity [8]: high immunogenicity | Ki ([2]; Table 5, ref [13]): 0.009 nM

Reference: paper PMC6835510, “Magnificamide, a β-Defensin-Like Peptide from the Mucus of the Sea Anemone Heteractis magnifica, Is a Strong Inhibitor of Mammalian α-Amylases” (Marine Drugs, 2019)
